According to patent US20140086839A1, “QUINOLONE ANALOGS FOR TREATING AUTOIMMUNE DISEASES” (Tel HaShomer Medical Research Infrastructure and Services …, priority 2011, published 2014):

Key:
MOG-induced EAE [1] = experiment: MOG-induced EAE, CX-5461 prophylactic treatment initiated at induction phase; assay type: in vivo; settings: for Cumulative disease score / Disease onset / Maximal clinical score: 9 days
Description: (§1) EAE was induced in female C57BL/6 mice, 8 weeks of age, by subcutaneous immunization to the flank of emulsion (1:1 ratio volume/volume) containing […] peptide dissolved in phosphate-buffered saline (PBS) (at a concentration 2 mg/ml) and 0.5 mg Mycobacterium Tuberculosis H37Ra (Difco, Detroit, Mich.) in […] incomplete Freund's adjuvant (Sigma, St. Louis, Mo.). Pertussis toxin 200 ng/mouse (dissolved in […] PBS (List Biological Laboratories, Campbell, Calif.) was injected intra-peritoneal on the day of immunization and again two days later. Mice were monitored daily for clinical signs of EAE, scored as follows: 1-flaccid tail; 1.5—hind limb weakness; 2—paralyzed hind limbs and poor righting ability; 2.5—forelimb weakness, paralyzed hind limbs, paralyzed tail; 3—four limbs paralysis, inability to right; 4—quadriplegia; 5.0—moribund or death of the animal after preceding clinical disease. Animal reaching a score of 4 were scarified using CO2. Mice were kept in an SPF (Specific Pathogen Free) environment. Animal breeding and maintenance and all experimental protocols were performed in accordance with the Israeli Council for Animal Care guidelines and all experiments were approved by Sheba IRB Animal Care Ethical Committee.
EAE was induced in female C57Bl/6J female mice (8 weeks old) as described above. Treatment with CX-5461 was initiated on the day of induction and continued till the clinical signs of EAE appeared in the control animal group (In 2 out of the 7 mice clinical signs of EAE appeared). CX-5461 was administered orally to each animal; the following doses of CX-5461 in 0.2 ml of vehicle were used: 12.5 mg/kg (n=6 mice), 25 mg/kg (n=6 mice) and 50 mg/kg (n=7 mice) in 0.2 ml of vehicle. Vehicle treated mice served as controls (n=7 mice). Treatment continued for 9 days post induction, until the first sign of EAE (grade 1) appeared in the vehicle animal group (in 2 out of 7 mice). Mice were monitored daily for clinical signs of EAE up to 42 days post induction.

MOG-induced EAE [2] = experiment: MOG-induced EAE, CX-5461 treatment initiated at clinical onset; assay type: in vivo
Description: as §1
EAE was induced in mice as described in Example 6, hereinabove.
EAE was induced in female C57/6J female mice as described above. Treatment with CX-5461 was administered orally in 0.2 ml of vehicle with the following concentrations: 12.5 mg/kg/d (n=11 mice) and 25.0 mg/kg/d (n=8 mice). Vehicle treated mice served as controls (n=9 mice). CX-5461 treatment was initiated from the day of disease onset (score 0.5 or 1.0) for the following 14 days. The day of disease onset was evaluated for each animal daily.

[3] = XTT cell viability of PHA-stimulated human PBMCs from healthy subjects; assay type: cell-based; settings: PHA 20 μg/ml, read-out: maximal effect on viability of human PBMCs (decrease)
Description: FIG. 6 is a histogram depicting the effect of CX-5461 on viability of human PBMCs. Human PBMCs were plated in DMEM+10% FCS+P/S+Q and 20 μg/ml PHA (400,000 cell/well) in the presence of increased concentrations of CX-5461 (50-500 nM) for 72 hours. Cells cultured with PHA alone served as controls. After incubation cell viability was determined by XTT assay;
PBMCs ([…]) from normal, healthy, subjects were plated in the presence of PHA (20 μg/ml) with elevated concentrations of CX-5461 (50-500 nM) for 72 hours. Cells plated in absence of CX-5461 served as controls.

[4] = XTT cell viability assay of PHA-stimulated mouse splenocytes; assay type: cell-based
Description: FIG. 5 is a histogram depicting the effect of CX-5461 on viability of mouse splenocytes. Mouse splenocytes were plated in DMEM+10% FCS+P/S+Q and 10 μg/ml PHA (250,000 cell/well) in the presence of increased concentrations of CX-5461 (50-4000 nM) for 72 hours. Cells cultured with PHA alone served as controls. Following incubation cell viability was determined by XTT assay;
Cells viability was assessed by the 2,3 bis[2-Methoxy-4-nitro-5-sulfophenyl]-2H-tetrazolium-5-carboxanilide (XTT) as say (Biological Industries, Kibbutz Beit Hemeek, Israel) which measures the reduction of a tetrazolium component (XTT) into soluble formazan product by the mitochondria of viable cells. The intensity of the dye obtained is proportional to the number of metabolic active cells. Mouse splenocytes were plated in presence of PHA ([…]) and elevated concentrations of CX-5461 (50-4000 nM) for 72 hours. Cells plated in absence of CX-5461 served as controls. Following incubation, cell viability was measured by 2,3-bis-(2-methoxy-4-nitro-5-sulfophenyl)-2H-tetrazolium-5-carboxanilide (XTT) assay according to manufacturer's instructions (Biological Industries, Kibbutz Beit Hemeek, Israel). The intensity of the dye obtained is proportional to the number of metabolic active cells.

[5] = XTT cell viability assay of neuronal progenitor cells; assay type: cell-based, mice; settings: read-out: decrease in NPC cell viability
Description: (§2) FIG. 8 is a histogram depicting the effects of CX-5461 on viability of neuronal progenitor cells (NPCs). Mouse NPCs were plated in neurospheres medium containing basic FGF and EGF at 20 ng/ml each (26,000 cell/well) in the presence of increased concentrations of CX-5461 (20-500 nM) for 72 hours. Cells cultured without CX-5461 served as controls. Following incubation cell viability was determined by XTT assay;
(§3) NPCs derived from the subventricular zone of the lateral ventricle of adult mice were allowed to proliferate in the presence of increased concentrations of CX-5461 (20 nM to 500 nM) for 72 hours, and cell viability was tested using XTT assay.

[6] = tested on: neural progenitor cells (NPCs); experiment: as above; assay type: cell-based, mice; settings: 20 nM, 72 hours
Description: as §2, §3

[7] = 12.5 mg/kg/day oral from day of EAE induction
[8] = 25.0 mg/kg/day oral from day of EAE induction
[9] = 12.5 mg/kg/day oral from disease onset, 14 days
[10] = 25 mg/kg/day oral from disease onset

Cc1cnc(CNC(=O)c2c(=O)c3ccc(N4CCCN(C)CC4)nc3n3c2sc2ccccc23)cn1 [CX-5461, 2-(4-methyl-1,4-diazepan-1-yl)-N-((5-methylpyrazin-2-yl)methyl)-5-oxo-5H-benzo[4,5]thiazolo[3,2-a][1,8]naphthyridine-6-carboxamide]
Cumulative disease score (MOG-induced EAE [1]; [7]): 16.25 ± 3.94
Disease onset (MOG-induced EAE [1]; [7]): 20.83 ± 1.36 days p.i.
Maximal clinical score (MOG-induced EAE [1]; [7]): 2.83 ± 0.49
Cumulative disease score (MOG-induced EAE [1]; [8]): 14.1 ± 3.5
Disease onset (MOG-induced EAE [1]; [8]): 23.1 ± 1.2 days p.i.
Maximal clinical score (MOG-induced EAE [1]; [8]): 3.3 ± 1.0
time to death (toxicity) (MOG-induced EAE [1]; 50 mg/kg/day oral, days of treatment post-induction, mean): 7.6 ± 0.5 days
toxic signs (MOG-induced EAE [1]; 50 mg/kg/day oral, since day 5 of treatment): change in the color and brightness of their fur, loss of weight and change in behavior
delay of EAE onset versus vehicle-control group (MOG-induced EAE [1]; all CX-5461 treated groups, not dependent on concentration): 10 days
Cumulative disease score (MOG-induced EAE [2]; [9]): 18.59 ± 4.26
Maximal EAE score (MOG-induced EAE [2]; [9]): 2 ± 0.47
survival (MOG-induced EAE [2]; [9]): all the animals survived
EAE score (MOG-induced EAE [2]; [10]): 0.88±0.18
toxic effects (MOG-induced EAE [2]; [10]): change in their fur color and brightness and loss of weight
time to death (toxic effects) (MOG-induced EAE [2]; 25 mg/kg/day oral from disease onset, all mice died): 10.1 ± 0.5 days
cytotoxicity at 72 h, 50 nM [3]: 35%
cytotoxicity at 72 h, 50 nM ([4]; 50 nM, read-out: decrease in cell viability of splenocyte cells): 27%
cytotoxicity at 72 h ([4]; 500 nM and higher concentrations, read-out: decrease in cell viability of splenocyte cells (maximal)): 97 to 100%
cytotoxicity at 72 h, 50 nM ([5]; mouse, 50 nM): 30%
cytotoxicity at 72 h ([5]; mouse, 100, 250 and 500 nM): ~50%
effect on NPCs viability [6]: no effect
